Reference: patent US20260256792A1, “TREATMENT OF CHRONIC SPONTANEOUS URTICARIA BY ADMINISTERING (R)-2-[3-[4-AMINO-3-(2-FLUORO-4-PHENOXY-PHENYL)PYRAZOLO[3,4-D]PYRIMIDIN-1-YL]PIPERIDINE-1-CARBONYL]-4-METHYL-4-[4-(OXETAN-3-YL)PIPERAZIN-1-YL]PENT-2-ENENITRILE” (priority 2023, published 2026)

Test system: moderate-to-severe chronic spontaneous urticaria (CSU)
Assay: Phase 2 CSU study: hives severity score over 7 days (HSS7)
Format: in vivo, human
Parameters: key to HSS7 Change from baseline, Median / HSS7, Median / HSS7, Max / HSS7 Change from baseline, Q1 / HSS7 Change from baseline, Q3 / HSS7 Change from baseline, Max: 7-day sum of daily hive scores, each 0 = none to 3 = >50 hives
Excerpt: The study comprises a 12 week, randomized, double-blind, placebo-controlled, multi-center, dose-ranging efficacy and safety phase, followed by a 40 week open label extension (OLE) phase (see FIG. 1).
The study consists of three phases and an optional OLE phase.
The UAS is a validated PRO measure. The daily UAS is the sum of the daily Hive Severity Score (HSS, ranging from 0=None to 3=more than 50 hives) and the daily Itch Severity Score (ISS, ranging from 0=None to 3=intense), the 2 key urticaria signs and symptoms which are wheals and itch. The daily UAS scores range from 0 to 6 point/day. Daily UAS scores are summed over 7-day period to create the UAS7, ranging from 0 to 42, and are composed of the HSS7 and ISS7 components. […] Patients were to complete the UAS using the e-diary. The e-diary was to be used once daily on the same time of each day recording of participant's answers to the urticaria activity score over 7 days (UAS7) questionnaire. For participants who entered the OLE phase, their answers to the UAS7 questionnaire were also to be collected from Week 20 to Week24 and from Week 48 to Week 52.
The following secondary endpoints were to be analyzed using the same approach as for the primary endpoint: • Change from baseline in UAS7 at Week 4 • Change from baseline in UAS7 at Week 12 (for US and US reference countries) • Change from baseline in ISS7 at Week 12 (except US and US reference countries) • Change from baseline in HSS7 at Week 12

[1] = Week 7, 400 mg BID, Omalizumab-Naïve Population
[2] = Week 7, 400 mg BID, Patients with Prior Omalizumab Use
[3] = Week 7, 400 mg QPM, Omalizumab-Naïve Population
[4] = Week 7, 400 mg QPM, Patients with Prior Omalizumab Use
[5] = Week 7, 400 mg TID, Omalizumab-Naïve Population
[6] = Week 7, 400 mg TID, Patients with Prior Omalizumab Use
[7] = Week 8, 400 mg BID, Omalizumab-Naïve Population
[8] = Week 8, 400 mg BID, Patients with Prior Omalizumab Use
[9] = Week 8, 400 mg QPM, Omalizumab-Naïve Population
[10] = Week 8, 400 mg QPM, Patients with Prior Omalizumab Use
[11] = Week 8, 400 mg TID, Omalizumab-Naïve Population
[12] = Week 8, 400 mg TID, Patients with Prior Omalizumab Use
[13] = Week 9, 400 mg BID, Omalizumab-Naïve Population
[14] = Week 9, 400 mg BID, Patients with Prior Omalizumab Use
[15] = Week 9, 400 mg QPM, Omalizumab-Naïve Population
[16] = Week 9, 400 mg QPM, Patients with Prior Omalizumab Use
[17] = Week 9, 400 mg TID, Omalizumab-Naïve Population
[18] = Week 9, 400 mg TID, Patients with Prior Omalizumab Use

## CC(C)(C=C(C#N)C(=O)N1CCC[C@@H](n2nc(-c3ccc(Oc4ccccc4)cc3F)c3c(N)ncnc32)C1)N1CCN(C2COC2)CC1 [rilzabrutinib, (R)-2-[3-[4-amino-3-(2-fluoro-4-phenoxy-phenyl)pyrazolo[3,4-d]pyrimidin-1-yl]piperidine-1-carbonyl]-4-methyl-4-[4-(oxetan-3-yl)piperazin-1-yl]pent-2-enenitrile]
[1]
  HSS7, Mean (SD): 7.34 (6.12)
  HSS7, Median: 7.00
  HSS7 Change from baseline, Mean (SD): −6.75 (5.85)
  HSS7 Change from baseline, Median: −7.00
  HSS7 Percent change from baseline, Mean (SD): −48.07 (38.31) %
  HSS7 Percent change from baseline, Median: −50.00%
[2]
  HSS7, Mean (SD): 4.80 (7.46)
  HSS7, Median: 0.00
  HSS7 Change from baseline, Mean (SD): −10.00 (9.67)
  HSS7 Change from baseline, Median: −12.00
  HSS7 Percent change from baseline, Median: −100.00%
[3]
  HSS7, Mean (SD): 10.43 (5.27)
  HSS7, Median: 8.40
  HSS7 Change from baseline, Mean (SD): −4.82 (5.35)
  HSS7 Change from baseline, Median: −4.00
  HSS7 Percent change from baseline, Mean (SD): −29.76 (31.10) %
  HSS7 Percent change from baseline, Median: −35.71%
[4]
  HSS7, Mean (SD): 9.00 (NC)
  HSS7, Median: 9.00
  HSS7 Change from baseline, Mean (SD): −11.00 (NC)
  HSS7 Change from baseline, Median: −11.00
  HSS7 Percent change from baseline, Mean (SD): −55.00 (NC) %
  HSS7 Percent change from baseline, Median: −55.00%
[5]
  HSS7, Mean (SD): 6.40 (4.54)
  HSS7, Median: 5.92
  HSS7 Change from baseline, Mean (SD): −7.60 (5.60)
  HSS7 Change from baseline, Median: −6.58
  HSS7 Percent change from baseline, Mean (SD): −52.36 (32.23) %
  HSS7 Percent change from baseline, Median: −50.69%
[6]
  HSS7, Mean (SD): 5.11 (4.08)
  HSS7, Median: 4.33
  HSS7 Change from baseline, Mean (SD): −10.92 (7.20)
  HSS7 Change from baseline, Median: −9.50
  HSS7 Percent change from baseline, Mean (SD): −63.38 (24.01) %
  HSS7 Percent change from baseline, Median: −54.41%
[7]
  HSS7, Mean (SD): 6.66 (6.70)
  HSS7, Median: 5.00
  HSS7 Change from baseline, Mean (SD): −7.49 (6.10)
  HSS7 Change from baseline, Median: −7.00
  HSS7 Percent change from baseline, Mean (SD): −54.71 (40.69) %
  HSS7 Percent change from baseline, Median: −74.07%
[8]
  HSS7, Mean (SD): 4.80 (7.46)
  HSS7, Median: 0.00
  HSS7 Change from baseline, Mean (SD): −10.00 (9.67)
  HSS7 Change from baseline, Median: −12.00
  HSS7 Percent change from baseline, Median: −100.00%
[9]
  HSS7, Median: 9.00
  HSS7 Change from baseline, Mean (SD): −4.56 (5.35)
  HSS7 Change from baseline, Median: −4.00
  HSS7 Percent change from baseline, Mean (SD): −29.79 (35.34) %
  HSS7 Percent change from baseline, Median: −28.57%
[10]
  HSS7, Mean (SD): 9.00 (NC)
  HSS7, Median: 9.00
  HSS7 Change from baseline, Mean (SD): −11.00 (NC)
  HSS7 Change from baseline, Median: −11.00
  HSS7 Percent change from baseline, Mean (SD): −55.00 (NC) %
  HSS7 Percent change from baseline, Median: −55.00%
[11]
  HSS7, Mean (SD): 6.12 (4.80)
  HSS7, Median: 6.00
  HSS7 Change from baseline, Mean (SD): −7.88 (5.18)
  HSS7 Change from baseline, Median: −7.50
  HSS7 Percent change from baseline, Mean (SD): −56.04 (32.39) %
  HSS7 Percent change from baseline, Median: −56.35%
[12]
  HSS7, Mean (SD): 3.17 (4.45)
  HSS7, Median: 1.50
  HSS7 Change from baseline, Mean (SD): −12.86 (6.28)
  HSS7 Percent change from baseline, Mean (SD): −80.91 (20.45) %
  HSS7 Percent change from baseline, Median: −86.73%
[13]
  HSS7, Mean (SD): 7.01 (7.58)
  HSS7, Median: 3.50
  HSS7 Change from baseline, Mean (SD): −6.95 (6.00)
  HSS7 Change from baseline, Median: 7.00
  HSS7 Percent change from baseline, Mean (SD): −53.79 (43.28) %
  HSS7 Percent change from baseline, Median: −68.18%
[14]
  HSS7, Mean (SD): 4.80 (7.46)
  HSS7, Median: 0.00
  HSS7 Change from baseline, Mean (SD): −10.00 (9.67)
  HSS7 Change from baseline, Median: −12.00
  HSS7 Percent change from baseline, Median: −100.00%
[15]
  HSS7, Mean (SD): 9.82 (5.59)
  HSS7, Median: 9.20
  HSS7 Change from baseline, Mean (SD): −5.33 (5.35)
  HSS7 Change from baseline, Median: 4.92
  HSS7 Percent change from baseline, Mean (SD): −34.46 (32.68) %
  HSS7 Percent change from baseline, Median: −33.59%
[16]
  HSS7, Mean (SD): 8.00 (NC)
  HSS7, Median: 8.00
  HSS7 Change from baseline, Mean (SD): −12.00 (NC)
  HSS7 Change from baseline, Median: −12.00
  HSS7 Percent change from baseline, Mean (SD): −60.00 (NC) %
  HSS7 Percent change from baseline, Median: −60.00%
[17]
  HSS7, Mean (SD): 5.88 (4.98)
  HSS7, Median: 6.00
  HSS7 Change from baseline, Mean (SD): −8.19 (5.87)
  HSS7 Change from baseline, Median: −8.00
  HSS7 Percent change from baseline, Mean (SD): −55.85 (38.63) %
  HSS7 Percent change from baseline, Median: −57.14%
[18]
  HSS7, Mean (SD): 3.25 (4.37)
  HSS7, Median: 2.00
  HSS7 Change from baseline, Mean (SD): −12.78 (6.34)
  HSS7 Change from baseline, Median: −12.00
  HSS7 Percent change from baseline, Mean (SD): −80.12 (19.92) %
  HSS7 Percent change from baseline, Median: −86.97%
Week 10, 400 mg BID, Omalizumab-Naïve Population
  HSS7, Mean (SD): 7.05 (7.27)
